Reference: US20210045383A1, “ORGANIC METABOLITE COMPOSITIONS AND METHODS OF USE AS MITICIDES FOR HONEY BEES” (priority 2018, published 2021)

Experiments:
Varroa destructor = test: Test hives treated with miticide treatment strips; mite levels by sugar roll method and sticky board mite drops; conditions: for mite loads once treatment resumed: after skipped mid-summer treatment (mite counts above 3 per 100 bees in September); for mites loads in the treated hives: single treatments on a three-month schedule
honey bees = conditions: applied using the Dribble Method; cited from earlier work

Row | SMILES | mite loads once treatment resumed (Varroa destructor) | mites loads in the treated hives (Varroa destructor) | bee mortality (honey bees)
1 | N[C@@H](CC(=O)O)C(=O)O [aspartic acid] | reduced mite loads to an acceptable level | zero | 
2 | N[C@@H](CCC(=O)O)C(=O)O [glutamic acid] | reduced mite loads to an acceptable level | zero | 
3 | O=C(O)C(=O)O [oxalic acid] |  |  | Increased bee mortality
